Measurements taken from the NIST ThermoML archive (doi:10.1021/je501106d).
Numbers after ± are expanded uncertainties.

Settings: for vapor or sublimation pressure: Closed cell (Static) method; for speed of sound: Brillouin scattering

CCCCCCC [heptane]
vapor or sublimation pressure (453.15 K, Liquid): 711 ± 30 kPa
speed of sound (458.15 K, 1000 kPa, Liquid): 483.1 ± 16 m/s
speed of sound (458.15 K, 2500 kPa, Liquid): 519.2 ± 17 m/s
speed of sound (458.15 K, 4000 kPa, Liquid): 552.1 ± 18 m/s
speed of sound (458.15 K, 5500 kPa, Liquid): 581.7 ± 19 m/s
speed of sound (458.15 K, 7000 kPa, Liquid): 608.2 ± 20 m/s
speed of sound (458.15 K, 8500 kPa, Liquid): 631.4 ± 20 m/s
speed of sound (458.15 K, Gas): 157 ± 5.1 m/s
speed of sound (458.15 K, Liquid): 483.3 ± 16 m/s
vapor or sublimation pressure (458.15 K, Liquid): 780 ± 30 kPa
speed of sound (463.15 K, 2500 kPa, Liquid): 498.9 ± 16 m/s
speed of sound (463.15 K, 4000 kPa, Liquid): 533.4 ± 17 m/s
speed of sound (463.15 K, 5500 kPa, Liquid): 564.4 ± 18 m/s
speed of sound (463.15 K, 7000 kPa, Liquid): 592 ± 19 m/s
speed of sound (463.15 K, 8500 kPa, Liquid): 616 ± 20 m/s
speed of sound (463.15 K, Gas): 155 ± 5.1 m/s
speed of sound (463.15 K, Liquid): 462.8 ± 15 m/s
vapor or sublimation pressure (463.15 K, Liquid): 853 ± 30 kPa
speed of sound (468.15 K, 2500 kPa, Liquid): 478.5 ± 15 m/s
speed of sound (468.15 K, 4000 kPa, Liquid): 514.7 ± 16 m/s
speed of sound (468.15 K, 5500 kPa, Liquid): 547.2 ± 18 m/s
speed of sound (468.15 K, 7000 kPa, Liquid): 559.8 ± 18 m/s
speed of sound (468.15 K, 8500 kPa, Liquid): 600.8 ± 19 m/s
speed of sound (468.15 K, Gas): 152.8 ± 5 m/s
speed of sound (468.15 K, Liquid): 442.2 ± 14 m/s
vapor or sublimation pressure (468.15 K, Liquid): 935 ± 30 kPa
speed of sound (473.15 K, 2500 kPa, Liquid): 458 ± 15 m/s
speed of sound (473.15 K, 4000 kPa, Liquid): 496 ± 16 m/s
speed of sound (473.15 K, 5500 kPa, Liquid): 530 ± 17 m/s
speed of sound (473.15 K, 7000 kPa, Liquid): 543.9 ± 18 m/s
speed of sound (473.15 K, 8500 kPa, Liquid): 570.6 ± 18 m/s
speed of sound (473.15 K, Gas): 150.3 ± 4.9 m/s
speed of sound (473.15 K, Liquid): 421.3 ± 14 m/s
vapor or sublimation pressure (473.15 K, Liquid): 1022 ± 30 kPa
speed of sound (478.15 K, 2500 kPa, Liquid): 437.5 ± 14 m/s
speed of sound (478.15 K, 4000 kPa, Liquid): 477.4 ± 15 m/s
speed of sound (478.15 K, 5500 kPa, Liquid): 512 ± 16 m/s
speed of sound (478.15 K, 7000 kPa, Liquid): 528.1 ± 17 m/s
speed of sound (478.15 K, 8500 kPa, Liquid): 555.7 ± 18 m/s
speed of sound (478.15 K, Gas): 147.5 ± 4.8 m/s
speed of sound (478.15 K, Liquid): 400.3 ± 13 m/s
vapor or sublimation pressure (478.15 K, Liquid): 1114 ± 30 kPa
speed of sound (483.15 K, 2500 kPa, Liquid): 416.9 ± 13 m/s
speed of sound (483.15 K, 4000 kPa, Liquid): 458.7 ± 15 m/s
speed of sound (483.15 K, 5500 kPa, Liquid): 495.7 ± 16 m/s
speed of sound (483.15 K, 7000 kPa, Liquid): 512.3 ± 16 m/s
speed of sound (483.15 K, 8500 kPa, Liquid): 540.9 ± 17 m/s
speed of sound (483.15 K, Gas): 144.5 ± 4.7 m/s
speed of sound (483.15 K, Liquid): 379 ± 12 m/s
vapor or sublimation pressure (483.15 K, Liquid): 1203 ± 30 kPa
speed of sound (488.15 K, 2500 kPa, Liquid): 396.3 ± 13 m/s
speed of sound (488.15 K, 4000 kPa, Liquid): 440 ± 14 m/s
speed of sound (488.15 K, 5500 kPa, Liquid): 478.7 ± 15 m/s
speed of sound (488.15 K, 7000 kPa, Liquid): 496.7 ± 16 m/s
speed of sound (488.15 K, 8500 kPa, Liquid): 526.3 ± 17 m/s
speed of sound (488.15 K, Gas): 141.2 ± 4.6 m/s
speed of sound (488.15 K, Liquid): 357.4 ± 12 m/s
vapor or sublimation pressure (488.15 K, Liquid): 1307 ± 30 kPa
speed of sound (493.15 K, 2500 kPa, Liquid): 375.7 ± 12 m/s
speed of sound (493.15 K, 4000 kPa, Liquid): 421.4 ± 14 m/s
speed of sound (493.15 K, 5500 kPa, Liquid): 461.7 ± 15 m/s
speed of sound (493.15 K, Gas): 137.5 ± 4.5 m/s
speed of sound (493.15 K, Liquid): 335.4 ± 11 m/s
vapor or sublimation pressure (493.15 K, Liquid): 1409 ± 30 kPa
speed of sound (498.15 K, 2500 kPa, Liquid): 354.9 ± 11 m/s
speed of sound (498.15 K, 4000 kPa, Liquid): 402.8 ± 13 m/s
speed of sound (498.15 K, 5500 kPa, Liquid): 444.8 ± 14 m/s
speed of sound (498.15 K, Gas): 133.4 ± 4.4 m/s
speed of sound (498.15 K, Liquid): 313 ± 10 m/s
vapor or sublimation pressure (498.15 K, Liquid): 1532 ± 30 kPa
speed of sound (503.15 K, 2500 kPa, Liquid): 334.2 ± 11 m/s
speed of sound (503.15 K, 4000 kPa, Liquid): 384.1 ± 12 m/s
speed of sound (503.15 K, 5500 kPa, Liquid): 428 ± 14 m/s
speed of sound (503.15 K, Gas): 129 ± 4.2 m/s
speed of sound (503.15 K, Liquid): 290.1 ± 9.3 m/s
vapor or sublimation pressure (503.15 K, Liquid): 1649 ± 30 kPa
speed of sound (508.15 K, 2500 kPa, Liquid): 313.3 ± 10 m/s
speed of sound (508.15 K, 4000 kPa, Liquid): 365.5 ± 12 m/s
speed of sound (508.15 K, 5500 kPa, Liquid): 411.2 ± 13 m/s
speed of sound (508.15 K, Gas): 124.1 ± 4.1 m/s
speed of sound (508.15 K, Liquid): 266.6 ± 8.6 m/s
vapor or sublimation pressure (508.15 K, Liquid): 1781 ± 30 kPa
speed of sound (513.15 K, 2500 kPa, Liquid): 292.4 ± 9.5 m/s
speed of sound (513.15 K, 4000 kPa, Liquid): 346.9 ± 11 m/s
speed of sound (513.15 K, 5500 kPa, Liquid): 394.5 ± 13 m/s
speed of sound (513.15 K, Gas): 118.7 ± 3.9 m/s
speed of sound (513.15 K, Liquid): 242.4 ± 7.8 m/s
vapor or sublimation pressure (513.15 K, Liquid): 1910 ± 30 kPa
speed of sound (518.15 K, 2500 kPa, Liquid): 271.5 ± 8.8 m/s
speed of sound (518.15 K, 4000 kPa, Liquid): 328.3 ± 11 m/s
speed of sound (518.15 K, 5500 kPa, Liquid): 377.8 ± 12 m/s
speed of sound (518.15 K, Gas): 112.8 ± 3.7 m/s
speed of sound (518.15 K, Liquid): 217.3 ± 7 m/s
vapor or sublimation pressure (518.15 K, Liquid): 2049 ± 30 kPa
speed of sound (523.15 K, 4000 kPa, Liquid): 309.7 ± 10 m/s
speed of sound (523.15 K, 5500 kPa, Liquid): 361.2 ± 12 m/s
speed of sound (523.15 K, Gas): 106.4 ± 3.5 m/s
speed of sound (523.15 K, Liquid): 190.9 ± 6.2 m/s
vapor or sublimation pressure (523.15 K, Liquid): 2201 ± 30 kPa
speed of sound (528.15 K, 4000 kPa, Liquid): 291.1 ± 9.4 m/s
speed of sound (528.15 K, 5500 kPa, Liquid): 344.6 ± 11 m/s
speed of sound (528.15 K, Gas): 99.37 ± 3.3 m/s
speed of sound (528.15 K, Liquid): 162.7 ± 5.3 m/s
vapor or sublimation pressure (528.15 K, Liquid): 2358 ± 30 kPa
speed of sound (533.15 K, Gas): 91.71 ± 3.1 m/s
speed of sound (533.15 K, Liquid): 131.9 ± 4.3 m/s
vapor or sublimation pressure (533.15 K, Liquid): 2519 ± 30 kPa
speed of sound (536.15 K, Gas): 86.78 ± 3 m/s
speed of sound (536.15 K, Liquid): 111.1 ± 3.7 m/s
vapor or sublimation pressure (536.15 K, Liquid): 2630 ± 30 kPa
